Test results from patent publication US9101640B2, “Use of Danshensu, Notoginsenoside R1 or their combination in preparation of medicaments for preventing and treating diseases caused by microcirculation disorder” (Tasly Pharmaceutical Group Co., Ltd., priority 2009, dated 2015).
Entries after “also recorded” stand apart in the source; their conditions may differ.

Columns and labels:
Assay type in all cases: in vivo
[1] = tested on: leukocytes adhered to the mesenteric venules; assay: Counting of leukocytes adhered to venular walls after I/R; details: rat mesenteric I/R
Method: (§1) The rats were anesthetized by intraperitoneal injection of pentobarbital sodium (30 mg/kg body weight (BW)). PE venous cannulas (#3) were cannulated into the right jugular of the rats and detained. The abdomen of each rat was incised in a length of 20-30 mm along the midline. The ileum near the ileocecal junctions was gently taken out and unfolded onto the object stage mounted with glass slides. The unfolded mesenteries were continuously dripped with Krebs-Ringer buffering solution at 37° C. The microcirculatory dynamics of the mesenteries was observed under white light (12V, 100 W) using an inverted biomicroscope (Diaphot TMD-2S, Nikon, Tokyo) placed in the thermostat at 37° C. Observation sites were selected under 20× object lens, and a video recording system with a time-displaying function was used to record what had been observed on S-VHS tape and preserved. […] Normal saline was administrated at 20 min before ischemia until the end of the observation by continuously intravenous drip via jugular at a dosage of 5 mg/kg/h. PE cannulas were used to ligate non-circulatory mesenteric arteries and veins, so as to observe the arteries and veins for 10 min, and then the ligation was lifted. Time was adjusted to zero and the microcirculatory dynamics under the same visual field was continuously observed for 60 min.
(§2) DLA was administrated at 20 min before ischemia until the end of the observation by continuously intravenous drip via jugular at a dosage of 5 mg/kg/h.
(§3) R1 was administrated at 20 min before ischemia until the end of the observation by continuously intravenous drip via jugular at a dosage of 5 mg/kg/h.
(§4) The combination of DLA and R1 in a weight ratio of 4:1 was administrated at 20 min before ischemia until the end of the observation by continuously intravenous drip via jugular at a dosage of 5 mg/kg/h.
(§5) The combination of DLA and R1 in a weight ratio of 1:1 was administrated at 20 min before ischemia until the end of the observation by continuously intravenous drip via jugular at a dosage of 5 mg/kg/h. […]
(§6) Wherein, 6 rats in each group were taken out, these rats were used for observing the following aspects: the venular diameters; leukocytes rolling, adhesion, and emigration and DHR fluorescence intensities of the venular walls. […]
(§7) Microcirculatory dynamics was continuously recorded using an inverted biomicroscope […] recording system (CC-090, Flovel, Tokyo) and SIT fluorescent camera (C-2400-08, Hamamatsu Photonics, Hamamatsu).
The leukocytes adhered to the venules which stayed at one site on the venular walls for at least 30 s the adherent leukocytes) was counted from the replayed images at the following time points: before ischemia, and 1 min, 10 min, 20 min, 30 min, 40 min, 50 min and 60 min after the beginning of the reperfusion. […]

[2] = tested on: mast cells in the mesenteric interstitial substance; assay: Percentage of mast cells degranulation after I/R (toluidine blue); details: 60 min of reperfusion, rat
[3] = tested on: plasma albumin leakage from the mesenteric venules; assay: FITC-labeled albumin leakage from venules after I/R; details: rat mesenteric I/R; for inhibition of the plasma albumin leakage from the venules after reperfusion: post-administration, 5 mg/kg/h continuous i.v. drip from 20 min after ischemia (DLA: 10 min after I/R); for inhibition of the plasma albumin leakage from the venules after I/R: pre-administration, 5 mg/kg/h continuous i.v. drip from 20 min before ischemia
Method: as §1, §2, §3, §4
The combination of DLA and R1 in a weight ratio of 1:1 was administrated at 20 min before ischemia until the end of the observation by continuously intravenous drip via jugular at a dosage of 5 mg/kg/h.
The combination of DLA and R1 in a weight ratio of 1:4 was administrated at 20 min before ischemia until the end of the observation by continuously intravenous drip via jugular at a dosage of 5 mg/kg/h.
(§8) DLA was administrated at 10 min after I/R until the end of the observation by continuously intravenous drip via jugular at a dosage of 5 mg/kg/h. […]
as §6
Microcirculatory dynamics was continuously recorded using an inverted biomicroscope […] recording system (CC-090, Flovel, Tokyo) and SIT fluorescent camera (C-2400-08, Hamamatsu Photonics, Hamamatsu). […]

[4] = tested on: peroxides in the mesenteric venular walls; assay: DHR fluorescence intensities of venular walls (production of peroxides) after I/R; details: rat mesenteric I/R
Method: The rats were anesthetized by intraperitoneal injection of pentobarbital sodium (30 mg/kg body weight (BW)). PE venous cannulas (#3) were cannulated into the right jugular of the rats and detained. The abdomen of each rat was incised in a length of 20-30 mm along the midline. The ileum near the ileocecal junctions was gently taken out and unfolded onto the object stage mounted with glass slides. The unfolded mesenteries were continuously dripped with Krebs-Ringer buffering solution at 37° C. The microcirculatory dynamics of the mesenteries was observed under white light (12V, 100 W) using an inverted biomicroscope (Diaphot TMD-2S, Nikon, Tokyo) placed in the thermostat at 37° C. Observation sites were selected under 20× object lens, and a video recording system with a time-displaying function was used to record what had been observed on S-VHS tape and preserved. […] PE cannulas were used to ligate non-circulatory mesenteric arteries and veins, so as to observe the arteries and veins for 10 min, and then the ligation was lifted. Time was adjusted to zero and the microcirculatory dynamics under the same visual field was continuously observed for 60 min. […]
as §8, §6, §7
The H2O2-sensitive fluorescent probes DHR ([…]) were continuously dripped onto the surfaces of the rat's mesenteries to be observed. An inverted fluorescence microscope (DM-IRB, Leica, Germany) with an excitation wavelength at 455 nm and a mercury lamp as an excitation source (100 W) was used. The images were recorded with a CD camera at the following time points: before ischemia, and 1 min, 10 min, 20 min, 30 min, 40 min, 50 min and 60 min after the beginning of the reperfusion. The fluorescence intensities of the venular wall and the extravascular interstitial substance were measured with a Image-Pro Plus 5.0 software. The […] value between the fluorescence intensity of the venular wall and that of the extravascular interstitial substance before ischemia was taken as a baseline. The ratio of the changing value at each time point to the baseline were calculated, which was used to indicate the changing rate of the DHR fluorescence intensities of the rat's mesenteric venular walls.

[5] = tested on: leukocytes rolling along the mesenteric venular walls; assay: Counting of leukocytes rolling along inner walls of venules after I/R; details: rat mesenteric I/R
Method: as §1, §2, §3, §4, §5, §6, §7
The leukocytes roiling along the inner walls of the venules in a length of 200 μm within 10 s was counted from the replayed images at the following time points: before ischemia, and 1 min, 10 min, 20 min, 30 min, 40 min, 50 min and 60 min after the beginning of the reperfusion.

[6] = post-administration, 5 mg/kg/h continuous i.v. drip from 20 min after ischemia (DLA: 10 min after I/R)
[7] = pre-administration, 5 mg/kg/h continuous i.v. drip from 20 min before ischemia
[8] = pre-administration, 5 mg/kg/h continuous i.v. drip from 20 min before ischemia, 5 mg/kg

| SMILES | inhibition of the increase in the number of leukocytes adhered to the mesenteric venules caused by I/R [1, 6] | inhibition of the increase in the number of leukocytes adhered to the mesenteric venules caused by I/R [1, 7] | inhibition of the increase in the percentage of mast cells degranulation caused by I/R [2, 6] | inhibition of the increase in the percentage of mast cells degranulation caused by I/R [2, 7] | inhibition of the plasma albumin leakage from the venules after reperfusion [3] | inhibition of the plasma albumin leakage from the venules after I/R [3] | inhibition of the production of peroxides in the mesenteric venular walls after I/R (DHR fluorescence) [4, 6] | inhibition of the production of peroxides in the mesenteric venular walls after I/R (DHR fluorescence) [4, 7] | inhibition of leukocytes rolling along the mesenteric venular walls caused by I/R ([5]; post-administration, 5 mg/kg/h continuous i.v. drip from 20 min after ischemia (DLA: 10 min after I/R), 5 mg/kg) | inhibition of leukocytes rolling along the mesenteric venular walls caused by I/R [5, 8] | inhibition of leukocytes rolling along the mesenteric venular walls caused by I/R [5, 6] |
| --- | --- | --- | --- | --- | --- | --- | --- | --- | --- | --- | --- |
| CC(C)=CCC[C@](C)(O[C@@H]1O[C@H](CO)[C@@H](O)[C@H](O)[C@H]1O)[C@H]1CC[C@]2(C)[C@@H]1[C@H](O)C[C@@H]1[C@@]3(C)CC[C@H](O)C(C)(C)[C@@H]3[C@@H](O[C@@H]3O[C@H](CO)[C@@H](O)[C@H](O)[C@H]3O[C@@H]3OC[C@@H](O)[C@H](O)[C@H]3O)C[C@]12C [R1, Notoginsenoside R1] | had significant inhibitory effects; also recorded: can inhibit | had significant inhibitory effects; also recorded: can inhibit | can significantly inhibit | can significantly inhibit | had significant inhibitory effects; also recorded: can inhibit | had significant inhibitory effects; also recorded: can inhibit | had no significant inhibitory effects; also recorded: has no inhibitory effects | had no significant inhibitory effects; also recorded: has no inhibitory effects | had no significant inhibitory effects; also recorded: have no significant inhibitory effects | had no significant inhibitory effects; also recorded: have no significant inhibitory effects | – |
| O=C(O)C(O)Cc1ccc(O)c(O)c1 (centres unmarked) [DLA, 3,4-dihydroxyphenyl lactic acid] | had significant inhibitory effects; also recorded: has the same effects as those of the pre-administration | had significant inhibitory effects; also recorded: can inhibit | had no significant inhibitory effects; also recorded: without the significant inhibition | can significantly inhibit | had significant inhibitory effects; also recorded: has the same effects as those of the pre-administration | had significant inhibitory effects; also recorded: can inhibit | had significant inhibitory effects; also recorded: has the same effects as those of the pre-administration | had significant inhibitory effects; also recorded: can inhibit | – | can apparently suppress; also recorded: can inhibit | has the same effects as those of the pre-administration |
